These results are taken from patent US8697382B2, “Method of identifying metallo-β-lactamase-producing bacteria” (Meiji Seika Pharma Co., Ltd., priority 2009, dated 2014).

This test relates to IMP-1-producing Pseudomonas aeruginosa. Description: Disk diffusion test: β-lactam agent disks placed 20 mm from a central compound (I) disk; growth inhibition zone radius measured. In kind it is cell-based. As to conditions: Muller-Hinton agar, overnight culture at 35° C.; for Ratio = Maximum/Minimum inhibition zone radius (degree of change in radius, A3/B3/C3): change caused by the compound (I) disk; for Inhibition zone radius, Maximum (A2/B2/C2): subzone on the compound (I) (disodium 2,3-diethylmaleate) disk side, subject to the metallo-β-lactamase inhibitor; for Inhibition zone radius, Minimum (A1/B1/C1): subzone on the side opposite to the compound (I) disk, not subject to the metallo-β-lactamase inhibitor. The text has this:
When the bacteria to be tested are MBL-producing bacteria, the shape of an inhibition zone formed around each β-lactam agent varies depending on the effect of the metallo-β-lactamase inhibitor (compound (I)). In this case, the inhibition zone formed around each β-lactam agent can be divided into two subzones (i.e., an inhibition subzone formed on the side opposite to the compound (I)-containing disk and an inhibition subzone formed on the compound (I)-containing disk side) by measurement along the center lines of the β-lactam agent-containing and compound (I)-containing disks (FIG. 1).
The inhibition subzone formed on the side opposite to the compound (I)-containing disk is not subject to the effect of the metallo-β-lactamase inhibitor. Thus, its radius can be minimized in the whole inhibition zone (e.g., the numerical value obtained here can be defined as “A1”, “B1” and “C1” for the β-lactam agents (A), (B) and (C), respectively (Table 1)). When no inhibition zone is formed, the radius of the disk can be used.
The inhibition subzone formed on the compound (I)-containing disk side is subject to the effect of the metallo-β-lactamase inhibitor. Thus, its radius can be maximized in the whole inhibition zone (e.g., the numerical value obtained here can be defined as “A2”, “B2” and “C2” for the β-lactam agents (A), (B) and (C), respectively (Table 1)). When no inhibition zone is formed, the radius of the disk can be used. Moreover, when the formed inhibition zone is wider than the distance between the disks, the distance from the center of the drug-containing disk to the compound (I)-containing disk can be used (e.g., “A2” in the flow 8 in the flowchart of FIG. 2 represents the distance from the center of the β-lactam agent (A)-containing disk to the compound (I)-containing disk).
The degree of change in the shape of the inhibition zone caused by the effect of the metallo-β-lactamase inhibitor can be measured as the ratio between the minimum and maximum radiuses of the inhibition zone, i.e., the degree of change in radius. For example, it can be calculated by dividing the maximum radius of the inhibition zone by the minimum radius thereof (e.g., this calculated value can be defined as “A3”, “B3”, and “C3”, respectively (Table 1)).
According to the disk diffusion method specified by CLSI, a Muller-Hinton agar medium was coated with a bacterial solution adjusted to McFarland standard turbidity of 0.5. No water droplet of the bacterial solution on the medium surface was confirmed, and round filter papers (diameter: approximately 6 mm) respectively containing 300 μg of a compound (I), 100 μg of biapenem as a drug (A), 100 μg of imipenem as a drug (B), and 300 μg of ceftazidime as a drug (C) were placed thereonto as drug-containing disks. The compound (I) used was a compound represented by the formula (I) wherein both R^1 and R^2 are an ethyl group, and M^1 is a sodium cation (disodium 2,3-diethylmaleate). The compound (I) was placed at the center of the agar medium, while the drugs (A) to (C) were placed such that the center of each disk was 20 mm distant from the center of the compound (I). After overnight culture at 35° C., the minimum and maximum radiuses of a growth inhibition zone around each disk were measured, and the degree of change in radius was calculated according to Table 1. The IMP or VIM MBL-producing bacteria were identified using a decision flow of FIG. 2.
In Example 2, bacteria to be tested were IMP-1-producing Pseudomonas aeruginosa. According to the disk diffusion method specified by CLSI, a Muller-Hinton agar medium was coated with the Pseudomonas aeruginosa, and disks were then placed thereonto.
In FIG. 4, the upper disk contained biapenem (BIPM) (A); the lower right disk contained imipenem (IPM) (B); the lower left disk contained ceftazidime (CAZ) (C); and the central disk was a compound (I)-containing disk. […]
In general terms: Agar diffusion results depend on both activity and mobility in agar.

As for `C[C@@H](O)[C@H]1C(=O)N2C(C(=O)[O-])=C(SC3Cn4cnc[n+]4C3)[C@H](C)[C@H]12` (stereo partly drawn) [biapenem], the “Ratio = Maximum/Minimum inhibition zone radius (degree of change in radius, A3/B3/C3)” value is 2.9; the “Inhibition zone radius, Maximum (A2/B2/C2)” value came out at 16.0 mm; the “Inhibition zone radius, Minimum (A1/B1/C1)” value came to 5.5 mm.

As for `C[C@@H](O)[C@H]1C(=O)N2C(C(=O)O)=C(SCCN=CN)C[C@H]12` [imipenem], the “Ratio = Maximum/Minimum inhibition zone radius (degree of change in radius, A3/B3/C3)” value turned out to be 2.2; the “Inhibition zone radius, Maximum (A2/B2/C2)” value is on record as 14.0 mm; the “Inhibition zone radius, Minimum (A1/B1/C1)” value was determined as 6.5 mm.

`CC(C)(O/N=C(\C(=O)N[C@@H]1C(=O)N2C(C(=O)[O-])=C(C[n+]3ccccc3)CS[C@H]12)c1csc(N)n1)C(=O)O` [ceftazidime]: the “Ratio = Maximum/Minimum inhibition zone radius (degree of change in radius, A3/B3/C3)” value is recorded as 4.1; the “Inhibition zone radius, Maximum (A2/B2/C2)” value worked out at 14.5 mm; the “Inhibition zone radius, Minimum (A1/B1/C1)” value turned out to be 3.5 mm.
